Consider four compounds from patent US7351744B2, “Naphthalene derivatives as termite repellents and toxicants” (Board of Supervisors of Louisiana State University and …, priority 2003, dated 2008).

The subject of data set [1] is Formosan subterranean termites. The note with it: other tested naturally occurring compounds; cited from earlier work.
In another data set the test system is termites. The data set can be described thus: Naphthalene-related compounds, choice of treated or untreated food or sand. The class given is in vivo. The conditions noted are these: no repellency up to this concentration; data not shown. The method, then: When termites were given a choice of treated or untreated food or sand, all four chemicals were repellents at concentrations of 40 μg/cm^2 treated filter paper or 100 mg/kg treated sand. […] Methoxynaphthalenes were more volatile than acetonaphthones and could spread more effectively into the untreated chambers. […] (Data not shown)

The nature of data set [2]: Longevity and volatility of the eleven chemicals. The class given is physicochemical. The note with it: among the eleven chemicals tested.

`C/C=C(\C)C(=O)O[C@H]1C[C@@H](OC(C)=O)[C@@]2(C(=O)OC)CO[C@H]3[C@@H](O)[C@@](C)([C@]45O[C@@]4(C)[C@H]4C[C@@H]5O[C@@H]5OC=C[C@@]54O)[C@H]4[C@]1(CO[C@]4(O)C(=O)OC)[C@@H]32` [azadirachtin]: the “concentration inhibiting tunneling and feeding behaviors” value in data set [1] is 500 mg/kg.

As for `C=C(C)[C@@H]1CCC2=CC(=O)C[C@@H](C)[C@]2(C)C1` [nootkatone], the “concentration inhibiting tunneling and feeding behaviors” value in data set [1] was 100 mg/kg.

In the data set on termites, `c1ccc2ccccc2c1` [Napthalene, naphthalene] returned a concentration showing repellency of over 500 μg/cm^2.

As for `CC(=O)c1cccc2ccccc12` [1′-acetonaphthone], in data set [2], the longevity result is “highest longevity” and the volatility result is “lowest volatility”.
